Data reported in patent EP0017970A1, “Novel beta-lactam derivatives and process for production thereof” (SANRAKU-OCEAN CO., LTD., priority 1979, dated 1980).
In brackets after ≈: the same amount, converted by molar mass. Structures can show the parent of a compound that is named as a salt.

Experiments:
Alcaligenes faecalis A 1 = experiment: MIC, agar dilution assay; format: cell-based; details: 35°C for 20 hours; for MIC: Alcaligenes faecalis, A1, 20 h, read-out: Antibiotic Activity minimum inhibitory concentration
Procedure: (§1) The antibiotic activities shown in Tables 1-1 to 1-9 above were determined in the following manner. The minimum inhibitory concentrations of the compounds of formula (VI-b) in Tables I-1 to 1-8 and the known compounds in Table 1-9 on the various microorganisms shown in the above tables were measured by an agar dilution assay method using a brain heart infusion agar medium "Difco" (a product of Difco Laboratories Inc.). A sample of the test compound was dissolved in sterile distilled water and diluted to prepare a twofold dilution series of the compound solution. In a betri dish of 9 cm in diameter, 1 ml of the compound solution was added to 9 ml of a molten sterile heart infusion agar medium (Difco Laboratories Inc.) at. about 60°C to prepare an agar plate containing the compound. An overnight culture of each test organism indicated in the above table, which was prepared by stationary cultivation in trypto-soy broth (Eiken Chemi. Co., Ltd.) at 35°C for 18 to 20 hours, was diluted with the trypto-soy broth to give approximately 10^8 cells/ml and the diluted inoculum was inoculated in the agar plate. After cultivating the plate at 35°C for 20 hours, the growth of the organism was observed. The minimum concentration of the compound at which no growth of the microorganism was noted was determined, and defined as the minimum inhibitory concentration of the test compound.

Enterobacter sp. E8 = experiment: MIC, agar dilution assay; format: cell-based; details: 35°C for 20 hours; for MIC: Enterobacter, SP.E8, 20 h, read-out: Antibiotic Activity minimum inhibitory concentration
Procedure: as §1

[1] = test system: Comamonas terrigena B-996; experiment: MIC, agar dilution assay; format: cell-based; details: 35°C for 20 hours; for MIC: Comamonas terrigena, B996, 20 h, read-out: Antibiotic Activity minimum inhibitory concentration
Procedure: as §1

[2] = test system: Enterobacter aerogenes E19; experiment: MIC, agar dilution assay; format: cell-based; details: 35°C for 20 hours; for MIC: Klebsiella aerogenes, E19, 20 h, read-out: Antibiotic Activity minimum inhibitory concentration
Procedure: as §1

[3] = test system: Pseudomonas aeruginosa NCTC10490; experiment: MIC, agar dilution assay; format: cell-based; details: 35°C for 20 hours, read-out: Antibiotic Activity minimum inhibitory concentration
Procedure: as §1

[4] = test system: Staphylococcus epidermidis; experiment: MIC, agar dilution assay; format: cell-based; details: 35°C for 20 hours; for MIC: 20 h, read-out: Antibiotic Activity minimum inhibitory concentration
Procedure: as §1

Proteus sp. P22 = experiment: MIC, agar dilution assay; format: cell-based; details: 35°C for 20 hours, read-out: Antibiotic Activity minimum inhibitory concentration
Procedure: as §1

[5] = test system: Staphylococcus aureus Smith; experiment: MIC, agar dilution assay; format: cell-based; details: 35°C for 20 hours; for MIC: Staphylococcus aureus, 20 h, read-out: Antibiotic Activity minimum inhibitory concentration
Procedure: as §1

Sarcina lutea = experiment: MIC, agar dilution assay; format: cell-based; details: 35°C for 20 hours; for MIC: Micrococcus luteus, 20 h, read-out: Antibiotic Activity minimum inhibitory concentration
Procedure: as §1

Proteus vulgaris GN76 = experiment: MIC, agar dilution assay; format: cell-based; details: 35°C for 20 hours, read-out: Antibiotic Activity minimum inhibitory concentration
Procedure: as §1

Serratia marcescens T55 = experiment: MIC, agar dilution assay; format: cell-based; details: 35°C for 20 hours; for MIC: Serratia marcescens, T55, 20 h, read-out: Antibiotic Activity minimum inhibitory concentration
Procedure: as §1

Escherichia coli K-12 = experiment: MIC, agar dilution assay; format: cell-based; details: 35°C for 20 hours; for MIC: Escherichia coli, K12, 20 h, read-out: Antibiotic Activity minimum inhibitory concentration
Procedure: as §1

Serratia marcescens S18 = experiment: MIC, agar dilution assay; format: cell-based; details: 35°C for 20 hours; for MIC: Serratia marcescens, S18, 20 h, read-out: Antibiotic Activity minimum inhibitory concentration
Procedure: as §1

[6] = test system: Bacillus subtilis ATCC 6633; experiment: MIC, agar dilution assay; format: cell-based; details: 35°C for 20 hours; for MIC: Bacillus subtilis, ATCC6633, 20 h, read-out: Antibiotic Activity minimum inhibitory concentration
Procedure: as §1

Providencia sp. P8 = experiment: MIC, agar dilution assay; format: cell-based; details: 35°C for 20 hours; for MIC: Providencia, SP.P8, 20 h, read-out: Antibiotic Activity minimum inhibitory concentration
Procedure: as §1

[7] = test system: Staphylococcus aureus FDA 209P; experiment: MIC, agar dilution assay; format: cell-based; details: 35°C for 20 hours; for MIC: Staphylococcus aureus, FDA209P, 20 h, read-out: Antibiotic Activity minimum inhibitory concentration
Procedure: as §1

Proteus rettgeri P7 = experiment: MIC, agar dilution assay; format: cell-based; details: 35°C for 20 hours; for MIC: Providencia rettgeri, P7, 20 h, read-out: Antibiotic Activity minimum inhibitory concentration
Procedure: as §1

[8] = test system: Klebsiella pneumoniae K-13; experiment: MIC, agar dilution assay; format: cell-based; details: K13, 35°C for 20 hours, read-out: Antibiotic Activity minimum inhibitory concentration
Procedure: as §1

[9] = test system: Staphylococcus aureus Russell; experiment: MIC, agar dilution assay; format: cell-based; details: 35°C for 20 hours; for MIC: Staphylococcus aureus, 20 h, read-out: Antibiotic Activity minimum inhibitory concentration
Procedure: as §1

[10] = test system: Pseudomonas aeruginosa IFO3445; experiment: MIC, agar dilution assay; format: cell-based; details: 35°C for 20 hours, read-out: Antibiotic Activity minimum inhibitory concentration
Procedure: as §1

[11] = Reaction with hydroxylamine, loss of UV absorbance; format: physicochemical; details: about 20 µg/ml, hydroxylamine 10 mM, pH 7.5, 22°C for 30 minutes
Procedure: An aqueous solution of hydroxylamine having a pH of 7.5 is added to a solution of the above substance in deionized water so that the concentration of the antibiotic PS-3 to about 20 µg/ml and the concentration of hydroxylamine to 10 mM. When the mixed solution is allowed to stand at 22°C for 30 minutes, about 93% of its absorbance at 300.0 nm disappears.

[12] = Solubility (physical and chemical properties); format: physicochemical
Procedure: The resulting powder was dissolved in 1 ml of a phosphate buffer (M/100, pH 8.4), and charged onto a column (1.1 x 90 cm) of Sephadex G-10 (a product of Pharmacia Fine Chemicals, Co.), and developed with the same buffer. The active fractions were collected by measuring their ultraviolet absorptions (λ300 nm). These fractions were adsorbed to a column (1.1 x 20 cm) of QAE Sephadex A-25 equilibrated with phosphate buffer (M/100, pH 8.4), and the column was eluted with 200 ml of phosphate buffer (M/100, pH 8.4) having a sodium chloride concentration linearly varying from 0 to O.lM by a concentration gradient method. The ultraviolet absorption (X300 nm) of each of the fractions was measured, and the active fractions were collected. Sodium chloride was added to the active fractions so that the concentration of sodium chloride reached 3% (w/v). The mixture was adsorbed to a column (1.1 x 20 cm) of Diaion HP-20AG (200 - 400 mesh), and eluted with water. The eluates were lyophilized to afford 5 mg of the sodium salt of PS-3 as a white dry powder. The physical and chemical properties of the product were as follows: • 1) Color Colorless • 2) Solubility

Proteus mirabilis P6 = experiment: MIC, agar dilution assay; format: cell-based; details: P6, 20 h, 35°C for 20 hours, read-out: Antibiotic Activity minimum inhibitory concentration
Procedure: as §1

Enterobacter cloacae 45 = experiment: MIC, agar dilution assay; format: cell-based; details: Enterobacter cloacae, 45, 20 h, 35°C for 20 hours, read-out: Antibiotic Activity minimum inhibitory concentration
Procedure: as §1

Escherichia coli RGN 823 = experiment: MIC, agar dilution assay; format: cell-based; details: RGN823, 20 h, 35°C for 20 hours, read-out: Antibiotic Activity minimum inhibitory concentration
Procedure: as §1

[13] = test system: Citrobacter freundii GN 346; experiment: MIC, agar dilution assay; format: cell-based; details: GN346, 20 h, 35°C for 20 hours, read-out: Antibiotic Activity minimum inhibitory concentration
Procedure: as §1

SMILES | MIC [1] [µg/mL] | MIC [3] [µg/mL] | MIC (Proteus sp. P22) [µg/mL] | MIC (Proteus vulgaris GN76) [µg/mL] | MIC (Serratia marcescens S18) [µg/mL] | MIC [8] [µg/mL] | MIC [10] [µg/mL] | MIC (Alcaligenes faecalis A 1) [µg/mL] | MIC (Enterobacter sp. E8) [µg/mL] | MIC [2] [µg/mL] | MIC [4] [µg/mL] | MIC [5] [µg/mL] | MIC (Proteus mirabilis P6) [µg/mL] | MIC (Sarcina lutea) [µg/mL] | MIC (Enterobacter cloacae 45) [µg/mL] | MIC (Escherichia coli RGN 823) [µg/mL] | MIC (Serratia marcescens T55) [µg/mL] | MIC (Escherichia coli K-12) [µg/mL] | MIC [13] [µg/mL] | MIC [6] [µg/mL] | other results
CC(O)[C@H]1C(=O)N2C(C(=O)O)=C(Sc3ccncc3)C[C@H]12 (relative stereo) [Table I-1 R1=-OH*] | 0.013 (≈ 0.0424 µM) | 1.56 (≈ 5.09 µM) | 50 (≈ 163 µM) | 50 (≈ 163 µM) | 100 (≈ 326 µM) | 25 (≈ 81.6 µM) | 1.56 (≈ 5.09 µM) |  |  |  |  |  |  |  |  |  |  |  |  |  | Antibiotic Activity minimum inhibitory concentration (Alcaligenes faecalis A 1): <0.007 µg/mL; Antibiotic Activity minimum inhibitory concentration (Enterobacter sp. E8): 0.025 µg/mL; Antibiotic Activity minimum inhibitory concentration [1]: <0.007 µg/mL; Antibiotic Activity minimum inhibitory concentration [2]: 1.56 µg/mL; Antibiotic Activity minimum inhibitory concentration [4]: <0.007 µg/mL; Antibiotic Activity minimum inhibitory concentration [5]: <0.007 µg/mL; Antibiotic Activity minimum inhibitory concentration (Sarcina lutea): <0.007 µg/mL; Antibiotic Activity minimum inhibitory concentration (Serratia marcescens T55): 25 µg/mL; Antibiotic Activity minimum inhibitory concentration (Escherichia coli K-12): 0.05 µg/mL; Antibiotic Activity minimum inhibitory concentration (Serratia marcescens S18): 50 µg/mL; Antibiotic Activity minimum inhibitory concentration [6]: <0.007 µg/mL; Antibiotic Activity minimum inhibitory concentration (Providencia sp. P8): 0.20 µg/mL; Antibiotic Activity minimum inhibitory concentration [7]: <0.007 µg/mL; Antibiotic Activity minimum inhibitory concentration (Proteus rettgeri P7): 0.78 µg/mL; Antibiotic Activity minimum inhibitory concentration [9]: <0.007 µg/mL
CC(=O)NCCSC1=C(C(=O)O)N2C(=O)C(C(C)O)C2C1 (stereo not shown) [PS-3 sodium salt, 3-(2-acetamidoethylthio)-6-(1-hydroxyethyl)-7-oxo-1-azabicyclo[3.2.0]hept-2-ene-2-carboxylic acid] |  |  |  |  |  |  |  |  |  |  |  |  |  |  |  |  |  |  |  |  | absorbance at 300.0 nm that disappears [11]: about 93%; Solubility ([12]; in acetone): substantially insoluble; Solubility ([12]; in water): Readily soluble
CC(C)C1C(=O)N2C(C(=O)O)=C(Sc3ccncc3)CC12 (stereo not shown) [Table I-1 R1=-CH3] | 0.007 (≈ 0.023 µM) | 1.56 (≈ 5.13 µM) | 50 (≈ 164 µM) | 50 (≈ 164 µM) | 50 (≈ 164 µM) | 25 (≈ 82.1 µM) | 1.56 (≈ 5.13 µM) | 0.013 (≈ 0.0427 µM) | 1.56 (≈ 5.13 µM) | 12.5 (≈ 41.1 µM) | 0.013 (≈ 0.0427 µM) | 0.013 (≈ 0.0427 µM) | 3.13 (≈ 10.3 µM) | 0.013 (≈ 0.0427 µM) | 50 (≈ 164 µM) | 12.5 (≈ 41.1 µM) | 100 (≈ 329 µM) | 3.13 (≈ 10.3 µM) | 50 (≈ 164 µM) | 0.013 (≈ 0.0427 µM) | MIC (Providencia sp. P8): 3.13 µg/mL (≈ 10.3 µM); MIC [7]: 0.007 µg/mL (≈ 0.023 µM); MIC (Proteus rettgeri P7): 1.56 µg/mL (≈ 5.13 µM); MIC [9]: 0.013 µg/mL (≈ 0.0427 µM)
CCC1C(=O)N2C(C(=O)O)=C(Sc3ccncc3)CC12 (stereo not shown) [Table I-1 R1=H] | < 0.007 | 0.92 (≈ 3.17 µM) | 29.5 (≈ 102 µM) | 29.5 (≈ 102 µM) | 29.5 (≈ 102 µM) | 14.8 (≈ 51 µM) | 0.92 (≈ 3.17 µM) | < 0.007 | 0.46 (≈ 1.58 µM) | 7.4 (≈ 25.5 µM) | < 0.007 | < 0.007 | 1.8 (≈ 6.2 µM) | < 0.007 | 29.5 (≈ 102 µM) | 14.8 (≈ 51 µM) | 29.5 (≈ 102 µM) | 0.92 (≈ 3.17 µM) | 29.5 (≈ 102 µM) | < 0.007 | MIC (Providencia sp. P8): 0.92 µg/mL (≈ 3.17 µM); MIC [7]: < 0.007 µg/mL; MIC (Proteus rettgeri P7): 1.8 µg/mL (≈ 6.2 µM); MIC [9]: < 0.007 µg/mL
